Results published in PMC12775434, “Ultra-large virtual screening unveils potent agonists of the neuromodulatory orphan receptor GPR139” (Nature Communications, 2025).
Values joined by “and” are separate entries in the source; they are usually repeats but may differ in a detail not shown here. Equal values may be shown once.

Columns and labels:
Format in all cases: cell-based
[1] = molecular target: T1, human muscarinic acetylcholine M1 receptor (M1R) (Homo sapiens, UniProt P11229); experiment: Ca2+ mobilization counter-screen in M1R-CHOk1 cells
T1 sequence (P11229 1-460): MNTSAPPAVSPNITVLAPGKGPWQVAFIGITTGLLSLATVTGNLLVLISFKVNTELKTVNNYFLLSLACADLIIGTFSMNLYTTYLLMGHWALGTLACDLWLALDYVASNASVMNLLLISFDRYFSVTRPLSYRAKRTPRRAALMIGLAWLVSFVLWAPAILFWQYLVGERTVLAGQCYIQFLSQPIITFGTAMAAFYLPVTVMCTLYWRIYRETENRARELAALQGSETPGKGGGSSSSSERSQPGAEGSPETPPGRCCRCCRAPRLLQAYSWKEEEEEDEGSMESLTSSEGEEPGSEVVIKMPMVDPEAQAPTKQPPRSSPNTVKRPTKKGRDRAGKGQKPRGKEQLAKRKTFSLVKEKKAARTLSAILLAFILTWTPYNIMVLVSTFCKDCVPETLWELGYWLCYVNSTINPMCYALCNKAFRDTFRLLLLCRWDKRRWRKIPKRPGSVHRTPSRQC
Method: Primary screening and pharmacological characterization of compounds were performed using a CHO-K1 cell line that stably expresses human GPR139 (GPR139-CHOk1). The GPR139-CHOk1 cell line was kindly provided by H. Lundbeck A/S, Denmark[24]. GPR139-CHOk1 cells were grown in Ham’s F-12 Kaighn’s Modification Medium (ThermoFisher #21127030) supplemented with 10% dialyzed fetal bovine serum (US origin, ThermoFisher #26400044), 100 units/mL Penicillin-Streptomycin (ThermoFisher #15140122), and 1 mg/mL Geneticin (ThermoFisher #11811031). […] M1R-CHOk1 cells were purchased from The Missouri S&T cDNA Resource Center (#CEM100TN00). M1R-CHOk1 cells were grown in Ham’s F12 Medium (ThermoFisher #21765029) supplemented with 10% fetal bovine serum (Brazilian origin, ThermoFisher #10270106), 100 units/mL Penicillin-Streptomycin, and 0.25 mg/mL Geneticin. HEK293A cells transiently transfected with GPR139 were used for additional pharmacological assessment of signaling pathways activated by GPR139. HEK239A cells were generously provided by Dr. Asuka Inoue, Tohoku University, Japan. HEK293A cells were grown in Dulbecco’s Modified Eagle Medium (ThermoFisher #31966047) supplemented with 10% dialyzed fetal bovine serum and 100 units/mL Penicillin-Streptomycin. Cell lines were maintained at 37 °C in humidified incubator equilibrated with 5% CO2.
30,000 GPR139- or M1R-CHOk1 cells/well were seeded in black clear bottom tissue culture treated 96-well plates (Greiner #655090) and grown for 20–24 h. Cells were washed with HEPES buffer (Hank’s Balanced Salt Solution (HBBS) supplemented with 20 mM HEPES, 1 mM MgCl2, and 1 mM CaCl2; pH 7.4). Cells were loaded with 50 µL of 2 µM Fluo-4 AM dye (ThermoFisher #F14202) in HEPES buffer supplemented with 2.5 mM probenecid and 0.01% Pluronic F-68 (ThermoFisher #24040032) for 1 h at 37 °C. Cells were washed with HEPES buffer. 50 µL HEPES buffer supplemented with 2.5 mM probenecid was added, and the cells were incubated for 10 min at 37 °C before measurement. 50 µL test compounds diluted in HEPES buffer from DMSO stocks (final DMSO concentration of maximally 0.3%) were added automatically after baseline measurements. The intracellular calcium mobilization was measured on a FlexStation 3 Multimode Microplate Reader (Molecular Devices) at 37 °C with filters for excitation of 485 nm and emission of 525 nm.

[2] = molecular target: T2, GPR139 (Homo sapiens, UniProt Q6DWJ6); experiment: Ca2+ mobilization assay, antagonist mode (EC80 800 nM Lundbeck Cmp 1a after 20 min preincubation), GPR139-CHOk1
T2 sequence (Q6DWJ6 1-353): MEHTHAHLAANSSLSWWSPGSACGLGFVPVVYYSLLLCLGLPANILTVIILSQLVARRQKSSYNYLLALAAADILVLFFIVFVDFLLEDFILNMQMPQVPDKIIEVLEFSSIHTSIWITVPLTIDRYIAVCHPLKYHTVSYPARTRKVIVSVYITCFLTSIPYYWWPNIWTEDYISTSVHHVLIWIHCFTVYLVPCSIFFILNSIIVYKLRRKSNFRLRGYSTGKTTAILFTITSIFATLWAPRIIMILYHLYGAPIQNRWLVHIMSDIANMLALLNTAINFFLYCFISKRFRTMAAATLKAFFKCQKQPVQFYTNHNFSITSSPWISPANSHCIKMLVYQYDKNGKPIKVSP
How it was run: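 Antagonist mode: 800 nM (EC80) reference agonist Lundbeck Cmp 1a added following 20 min pre-incubation with 10 µM compound. GPR139-CHOk1 cells, Fluo-4 dye, probenecid-containing HEPES buffer pH 7.4; intracellular Ca2+ measured at 37 °C (ex 485, em 525 nm).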

[3] = molecular target: T2, GPR139; experiment: Ca2+ mobilization assay, agonist mode, stable GPR139-CHOk1 cell line; details: for EC50 / Emax: Supplementary Table 2, mean ± SEM; for EC50: read-out: pEC50 Ca2+ (converted); for Emax: normalized to Lundbeck Cmp 1a, read-out: Emax (%) Ca2+
How it was run: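 Agonist activity of compounds is assessed in stably transfected CHO-K1 cells using the calcium dye Fluo-4 at 37 °C in HEPES-buffered HBSS (pH 7.4). Efficacy is expressed relative to the reference agonist Lundbeck Cmp 1a, set as 100%.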

[4] = individual replicates (Supplementary Figure 5)
[5] = individual replicates (Supplementary Figure 4)
[6] = Agonist mode, individual replicates (Supplementary Figure 4)
[7] = log [Compound] M = -4.5, individual replicate columns
[8] = log [Compound] M = -5.0, individual replicate columns
[9] = log [Compound] M = -5.5, individual replicate columns
[10] = log [Compound] M = -6.0, individual replicate columns
[11] = log [Compound] M = -6.5, individual replicate columns
[12] = log [Compound] M = -7.0, individual replicate columns
[13] = log [Compound] M = -7.5, individual replicate columns
[14] = log [Compound] M = -8.0, individual replicate columns
[15] = log [Compound] M = -8.5, individual replicate columns
[16] = log [Compound] M = -9.0, individual replicate columns

## C[C@H](NC(=O)CN(CC1CC1)C(=O)OC(C)(C)C)c1ccccc1 [Compound 10, C[C@H](NC(=O)CN(CC1CC1)C(=O)OC(C)(C)C)C=2C=CC=CC2]
[1]; individual replicates (Supplementary Figure 2)
  Ca2+ signal (% of Carbachol): 3.79 % of Carbachol and -10 % of Carbachol
[2]; individual replicates (Supplementary Figure 1)
  Ca2+ signal (% of Cmp 1a): 34.852 % of Cmp 1a and 42.0733 % of Cmp 1a and 46.5676 % of Cmp 1a
[3]; 0.1 µM, individual replicates (Supplementary Figure 3)
  Ca2+ signal (% of Cmp 1a): -1.5 % of Cmp 1a and 11.5 % of Cmp 1a
[3]; 1 µM, individual replicates (Supplementary Figure 3)
  Ca2+ signal (% of Cmp 1a): 2.4 % of Cmp 1a and 6.6 % of Cmp 1a
[3]; 10 µM, individual replicates (Supplementary Figure 3)
  Ca2+ signal (% of Cmp 1a): 39.5 % of Cmp 1a and 47.6 % of Cmp 1a
[3]; 0.1, 1 and 10 µM, activity too low to reliably determine EC50
  activation of GPR139 at three concentrations: concentration-dependent activation of GPR139
[3]; Agonist mode, individual replicates (Supplementary Figure 1)
  Ca2+ signal (% of Cmp 1a): 58 % of Cmp 1a and 64 % of Cmp 1a and 72 % of Cmp 1a
[3]; primary screen, 10 µM compound, agonist mode, three columns = independent experiments
  Ca2+ signal (% of Cmp 1a): 58 % of Cmp 1a and 64 % of Cmp 1a and 72 % of Cmp 1a

## Cc1cc(-c2nc(CC(=O)NC(C)c3ccccc3)no2)ccn1 (stereo not drawn) [Compound 1.19, CC(C1=CC=CC=C1)NC(CC2=NOC(C3=CC(C)=NC=C3)=N2)=O]
[1]; [4]
  Ca2+ signal (% of Carbachol): 8 % of Carbachol and -12 % of Carbachol and 7 % of Carbachol
[2]; [5]
  Ca2+ signal (% of Cmp 1a): 5.67 % of Cmp 1a and -2 % of Cmp 1a and -8 % of Cmp 1a
[3]; [6]
  Ca2+ signal (% of Cmp 1a): 76 % of Cmp 1a and 74 % of Cmp 1a and 71 % of Cmp 1a
[3]; Ca2+ mobilization EC50
  fold decrease in potency relative to a similar phenyl substituted compound (1.3): 4- to 16 fold
[3]
  EC50: 1 µM
  Emax: 109 ± 10%
[3]; [7]
  Ca2+ signal (% of Cmp 1a): 117 % of Cmp 1a and 90 % of Cmp 1a and 116 % of Cmp 1a
[3]; [8]
  Ca2+ signal (% of Cmp 1a): 97 % of Cmp 1a and 89 % of Cmp 1a and 99 % of Cmp 1a
[3]; [9]
  Ca2+ signal (% of Cmp 1a): 77 % of Cmp 1a and 75 % of Cmp 1a and 88 % of Cmp 1a
[3]; [10]
  Ca2+ signal (% of Cmp 1a): 61 % of Cmp 1a and 62 % of Cmp 1a and 60 % of Cmp 1a
[3]; [11]
  Ca2+ signal (% of Cmp 1a): 30 % of Cmp 1a and 19 % of Cmp 1a and 26 % of Cmp 1a
[3]; [12]
  Ca2+ signal (% of Cmp 1a): 9 % of Cmp 1a and 6.33 % of Cmp 1a and 5.33 % of Cmp 1a
[3]; [13]
  Ca2+ signal (% of Cmp 1a): 4.67 % of Cmp 1a and 0.667 % of Cmp 1a and -2.67 % of Cmp 1a
[3]; [14]
  Ca2+ signal (% of Cmp 1a): 3 % of Cmp 1a and -3.33 % of Cmp 1a and -3.67 % of Cmp 1a
[3]; [15]
  Ca2+ signal (% of Cmp 1a): 13 % of Cmp 1a and -4.67 % of Cmp 1a and 2.33 % of Cmp 1a
[3]; [16]
  Ca2+ signal (% of Cmp 1a): 7 % of Cmp 1a and -8 % of Cmp 1a and -1.33 % of Cmp 1a

## COc1ccc(-c2nc(CC(=O)NC(C)c3ccccc3)no2)nc1 (stereo not drawn) [Compound 1.35, COC1=CN=C(C2=NC(CC(NC(C3=CC=CC=C3)C)=O)=NO2)C=C1]
[1]; [4]
  Ca2+ signal (% of Carbachol): 7 % of Carbachol and 14 % of Carbachol and 10 % of Carbachol
[2]; [5]
  Ca2+ signal (% of Cmp 1a): 28 % of Cmp 1a and 18 % of Cmp 1a and 35 % of Cmp 1a
[3]; [6]
  Ca2+ signal (% of Cmp 1a): 54 % of Cmp 1a and 78 % of Cmp 1a and 29 % of Cmp 1a
[3]
  EC50: 5.01 µM
  Emax: 101 ± 5%
[3]; [7]
  Ca2+ signal (% of Cmp 1a): 94 % of Cmp 1a and 90 % of Cmp 1a and 98 % of Cmp 1a and 75 % of Cmp 1a
[3]; [8]
  Ca2+ signal (% of Cmp 1a): 78 % of Cmp 1a and 80 % of Cmp 1a (2×) and 38 % of Cmp 1a
[3]; [9]
  Ca2+ signal (% of Cmp 1a): 47 % of Cmp 1a and 55 % of Cmp 1a and 66 % of Cmp 1a and 27 % of Cmp 1a
[3]; [10]
  Ca2+ signal (% of Cmp 1a): 20 % of Cmp 1a and 21 % of Cmp 1a and 51 % of Cmp 1a and 17 % of Cmp 1a
[3]; [11]
  Ca2+ signal (% of Cmp 1a): -3 % of Cmp 1a and 8 % of Cmp 1a and 26 % of Cmp 1a and 20 % of Cmp 1a
[3]; [12]
  Ca2+ signal (% of Cmp 1a): 1.67 % of Cmp 1a and -1.67 % of Cmp 1a and 26 % of Cmp 1a and 31 % of Cmp 1a
[3]; [13]
  Ca2+ signal (% of Cmp 1a): 2.67 % of Cmp 1a and 5.33 % of Cmp 1a and 16 % of Cmp 1a and 34 % of Cmp 1a
[3]; [14]
  Ca2+ signal (% of Cmp 1a): -2 % of Cmp 1a and 11 % of Cmp 1a and 29 % of Cmp 1a and 25 % of Cmp 1a
[3]; [15]
  Ca2+ signal (% of Cmp 1a): -6 % of Cmp 1a and 3 % of Cmp 1a and 17 % of Cmp 1a and -0.333 % of Cmp 1a
[3]; [16]
  Ca2+ signal (% of Cmp 1a): 2 % of Cmp 1a and 4.67 % of Cmp 1a and 12 % of Cmp 1a and -2 % of Cmp 1a
